Results: patent publication US12195427B2, “MASP-2 inhibitors and methods of use” (priority 2018, dated 2025)
Structures can show the parent of a compound that is named as a salt.

Tests used:
human α-thrombin = human α-thrombin (Homo sapiens (Human), UniProt P00734); assay: Enzymatic Assay for Thrombin (Boc-VPR-AMC); format: biochemical
MASP-2 CCP2-SP = MASP-2 CCP2-SP (Homo sapiens (Human), UniProt O00187); assay: MASP-2 co-crystallization, X-ray crystallography and structure analysis (H-bonds, van der Waals contacts); set-up: van der Waals contact distance, MASP-2 HIS 483 atom CD2 / van der Waals contact distance, MASP-2 HIS 483 atom NE2 / van der Waals contact distance, SER 654 C to compound atom / van der Waals contact distance, SER 654 O to compound atom / van der Waals contact distance, TRP 655 C to compound atom / van der Waals contact distance, MASP-2 GLY 528 atom CA / van der Waals contact distance TRP 655 atom CZ3 / van der Waals contact distance TRP 655 atom N / van der Waals contact distance TRP 655 atom CE3 / van der Waals contact distance GLY 656 atom C / van der Waals contact distance GLY 656 atom CA / van der Waals contact distance GLY 656 atom O / van der Waals contact distance, MASP-2 TYR 607 atom CD1 / van der Waals contact distance, MASP-2 PRO 606 atom O / d(C3,CA1) / d(CA1,N1)2 / d(H4,O1) / d(H4,O2) / d(O1,O2) / d(CA1,O2) / d(CA6,O1) / d(CA6,O2) / d(CA1,C5) / d(O2,H3) / d(N2,C2) / d(CA5,N2) / d(N2,C4) / d(N2,C6) / d(N2,CA3) / d(N2,O3) / d(O4,H2): unit not given beside the values; conditions: for H-bond distance to MASP-2 GLY 656 atom N: GLY 656 N; for H-bond distance to MASP-2 GLY 656 atom O: GLY 656 O; for H-bond distance to MASP-2 SER 654 atom O: SER 654 O;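 as to Ligand-pharmacophore element distance, pharmacophore element C2: distance from averaged pharmacophore element to bound ligand; missing value means element absent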;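 as to Ligand-pharmacophore element distance, pharmacophore element C3: distance from averaged pharmacophore element to bound ligand; missing value means element absent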;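 as to Ligand-pharmacophore element distance, pharmacophore element C4: distance from averaged pharmacophore element to bound ligand; missing value means element absent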;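 as to Ligand-pharmacophore element distance, pharmacophore element C5: distance from averaged pharmacophore element to bound ligand; missing value means element absent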
Outline: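 Contacts and H-bonds come from partially refined soaked-crystal structures of recombinant human CCP2-SP made in E. coli, solved by molecular replacement against 1Q3X fragments. Where several ligand poses appeared, only one was analysed; listed nonbonded contacts may include possible H-bond pairings.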

MASP-2 (CCP1-CCP2-SP) = MASP-2 (CCP1-CCP2-SP) (Homo sapiens (Human), UniProt O00187); assay: Enzymatic Assay for MASP-2 (fluorogenic substrate); format: biochemical
Lectin Pathway = Lectin Pathway Activation Assay in Human Serum (mannan-coated ELISA, C3c detection); format: biochemical; conditions: 1% human serum
Method: Microtiter ELISA plate was coated with mannan from Saccharomyces cerevisiae (Sigma-Aldrich, M7504) for overnight at 4° C. in coating buffer [15 mM Na2CO3, 35 mM NaHCO3].

[1] = Table A5-1 pharmacophore: distance between elements, S2/S1 region
[2] = Table A5-2 pharmacophore distance, S3/S4 region
[3] = Table A7-1, between pharmacophore elements of the bound compound
[4] = Table A8-6, nearest protein atom in cell to the left

Chain of MASP-2 CCP2-SP (O00187 445-686): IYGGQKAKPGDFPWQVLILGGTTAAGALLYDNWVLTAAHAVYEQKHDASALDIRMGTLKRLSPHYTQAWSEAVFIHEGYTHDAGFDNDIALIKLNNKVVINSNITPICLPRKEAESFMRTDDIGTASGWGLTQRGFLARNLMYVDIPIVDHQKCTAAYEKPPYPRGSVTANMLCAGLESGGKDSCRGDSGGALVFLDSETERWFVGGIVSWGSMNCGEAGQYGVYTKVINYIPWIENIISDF
Chain of MASP-2 CCP2-SP (O00187 364-432 partner): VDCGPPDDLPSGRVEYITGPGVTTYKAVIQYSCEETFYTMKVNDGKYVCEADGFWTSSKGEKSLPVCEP
Chain of MASP-2 (CCP1-CCP2-SP) (O00187 445-686): as the sequence (O00187 445-686) above

## C[C@H](NC(=O)[C@H]1C[C@H](Cc2ccccc2)CN1)C(=O)NCc1cnc2c(c1)c(Cl)cn2C [compound 1450, (2R,4S)-4-Benzyl-N—((S)-1-(((3-chloro-1-methyl-1H-pyrrolo[2,3-b]pyridin-5-yl)methyl)amino)-1-oxopropan-2-yl)pyrrolidine-2-carboxamide Dihydrochloride]
Human α-thrombin
  Ki: 2.5 to 10 µM
MASP-2 CCP2-SP; Table A1 (H-Bonds)
  H-bond distance to MASP-2 GLY 656 atom N: 3.04
  H-bond distance to MASP-2 GLY 656 atom O: 2.78
  H-bond distance to MASP-2 SER 654 atom O: 2.97
MASP-2 CCP2-SP; Table A2
  van der Waals contact distance, MASP-2 amino acid atom to compound atom: 3.44
MASP-2 CCP2-SP; Table A2-1
  van der Waals contact distance, MASP-2 HIS 483 atom CD2: 3.9
  van der Waals contact distance, MASP-2 HIS 483 atom NE2: 3.88
MASP-2 CCP2-SP; Table A2-2
  van der Waals contact distance, MASP-2 GLY 528 atom CA: 3.89
MASP-2 CCP2-SP; Table A2-11
  van der Waals contact distance, SER 654 C to compound atom: 3.81
MASP-2 CCP2-SP; Table A2-13, MASP-2 GLY 656 CA
  van der Waals contact distance GLY 656 atom CA: 3.75
MASP-2 CCP2-SP; Table A2-13, MASP-2 TRP 655 N
  van der Waals contact distance TRP 655 atom N: 3.66

## C[C@H](NC(=O)[C@H]1C[C@H](c2ccccc2)CN1)C(=O)NCc1ccc2c(N)nccc2c1 [compound 1090]
MASP-2 (CCP1-CCP2-SP)
  Ki: < 0.5 µM
Lectin Pathway
  IC50: 0.5 to 5 µM
MASP-2 CCP2-SP; Table A1 (H-Bonds), ASP 627 OD2
  H-bond distance to MASP-2 ASP 627 atom OD2: 2.8
MASP-2 CCP2-SP; Table A1 (H-Bonds)
  H-bond distance to MASP-2 GLY 656 atom N: 3.3
  H-bond distance to MASP-2 GLY 656 atom O: 2.78
  H-bond distance to MASP-2 SER 654 atom O: 2.96
MASP-2 CCP2-SP; Table A1 (H-Bonds), SER 657 OG
  H-bond distance to MASP-2 SER 657 atom OG: 2.73
MASP-2 CCP2-SP; Table A2-1
  van der Waals contact distance, MASP-2 HIS 483 atom CD2: 3.74
MASP-2 CCP2-SP; Table A2-3
  van der Waals contact distance, MASP-2 PHE 529 atom CE1: 3.87
MASP-2 CCP2-SP; Table A2-7 continued: CYS 629 (CA)
  van der Waals contact distance, MASP-2 amino acid atom to compound atom: 3.89
MASP-2 CCP2-SP; Table A2-8, CYS 629 / ARG 630, AA atoms CB, N, C, O, CA, CB, CD
  van der Waals contact distance, MASP-2 amino acid atom to compound atom: 3.9
MASP-2 CCP2-SP; Table A2-9, ARG 630, AA atoms CG, CZ
  van der Waals contact distance, MASP-2 amino acid atom to compound atom: 3.64
MASP-2 CCP2-SP; Table A2-9 second part, ARG 630, AA atoms N, NE, NH1
  van der Waals contact distance, MASP-2 amino acid atom to compound atom: 3.85
MASP-2 CCP2-SP; Table A2-14, MASP-2 SER 657 C, columns c12-c13 (inferred)
  van der Waals contact distance SER 657 atom C: 3.7
MASP-2 CCP2-SP; Table A4-1, element C2
  Ligand-pharmacophore element distance, pharmacophore element C2: 0
MASP-2 CCP2-SP; Table A4-1, element C3
  Ligand-pharmacophore element distance, pharmacophore element C3: 0
MASP-2 CCP2-SP; Table A4-1, element C4
  Ligand-pharmacophore element distance, pharmacophore element C4: 0
MASP-2 CCP2-SP; Table A4-1, element C5
  Ligand-pharmacophore element distance, pharmacophore element C5: 0
MASP-2 CCP2-SP; Table A4-1, element C6
  Ligand-pharmacophore element distance, pharmacophore element C6: 0
MASP-2 CCP2-SP; Table A4-1, element C7
  Ligand-pharmacophore element distance, pharmacophore element C7: 0
MASP-2 CCP2-SP; Table A4-1, element CA1
  Ligand-pharmacophore element distance, pharmacophore element CA1: 0.98
MASP-2 CCP2-SP; Table A4-1, element CA2
  Ligand-pharmacophore element distance, pharmacophore element CA2: 0
MASP-2 CCP2-SP; Table A4-1, element CA3
  Ligand-pharmacophore element distance, pharmacophore element CA3: 0
MASP-2 CCP2-SP; Table A4-1, element CA4
  Ligand-pharmacophore element distance, pharmacophore element CA4: 0
MASP-2 CCP2-SP; Table A4-1, element CA5
  Ligand-pharmacophore element distance, pharmacophore element CA5: 0.91
MASP-2 CCP2-SP; Table A4-1, element CA6
  Ligand-pharmacophore element distance, pharmacophore element CA6: 0
MASP-2 CCP2-SP; [1]
  d(CA1,O1): 5.59
  d(CA1,O2): 5.11
  d(H4,O1): 3.15
  d(H4,O2): 3.68
  d(O1,O2): 3.38
MASP-2 CCP2-SP; [2]
  d(CA5,N2): 5.09
  d(N2,C4)4: 7.94
  d(O2,H3): 5.87
  d(O2,N2): 2.72
MASP-2 CCP2-SP; Table A6-1 pharmacophore angle
  a(CA1, O1, O2): 100.34
  a(O1, O2, H4): 121.29
MASP-2 CCP2-SP; Table A6-2 pharmacophore angle
  a(O1, O2, H3): 152.05
  a(O1, O2, N2): 140.84
MASP-2 CCP2-SP; [3]
  Pharmacophore torsion angle a(H4, O1, O2, H3): 91.31
  Pharmacophore torsion angle a(H4, O1, O2, N2): −177.46
  Pharmacophore torsion angle a(O1, H4, O2, CA1): −92.71
MASP-2 CCP2-SP; Table A7-2, between pharmacophore elements of the bound compound
  Pharmacophore torsion angle a(O1, O2, N2, CA5): 134.91
MASP-2 CCP2-SP; Table A8-6, 6th residue column, nearest protein atom in cell to the left
  Pharmacophore protein distance to MET_658 (first MET_658 column): 2.69
MASP-2 CCP2-SP; Table A8-6, 9th residue column, nearest protein atom in cell to the left
  Pharmacophore protein distance to MET_658 (second MET_658 column): 2.71
MASP-2 CCP2-SP; [4]
  Pharmacophore protein distance to GLY_528: 3.61
  Pharmacophore protein distance to PHE_529: 2.77
  Pharmacophore protein distance to PRO_608: 3.95
  Pharmacophore protein distance to SER_611: 2.87
MASP-2 CCP2-SP; Table A8-6, pharmacophore elements C6, CA3, O3, H1, nearest protein atom in cell to the left
  Pharmacophore protein distance to TRP_655: 3.50
